Experimental data taken from ChEMBL document CHEMBL4828771, “Discovery and Development of a Potent, Selective, and Orally Bioavailable CHK1 Inhibitor Candidate: 5-((4-((3-Amino-3-methylbutyl)amino)-5-(trifluoromethyl)pyrimidin-2-yl)amino)picolinonitrile” (J Med Chem, 2021).
Activity calls are given as the source filed them. The rule behind the calls is not given here.

Tests used:
[1] = MRT (0 to infinity) in ICR mouse at 20 mg/kg, po measured after 0.083 to 48 hrs by LC-MS/MS analysis; format: ADME, organism-based; conditions: in vivo, time 0.083-48 hrs
[2] = system: HT-29; assay: Antitumor activity against human HT-29 cells xenografted in mouse assessed as reduction in tumor growth by measuring T/C ratio at 30 mg/kg, po cotreated with gemcitabine dosed 5 days/week for 22 days measured twice every week; format: functional; conditions: time 22 day
[3] = system: MV4-11; assay: Antiproliferation activity against human MV4-11 cells assessed as reduction in cell viability incubated for 72 hrs by MTS assay; format: functional, cell-based; conditions: MV4-11, 72 h
[4] = system: RPMI-8226; assay: Antiproliferative activity against human RPMI-8226 cells incubated for 72 hrs in presence of gemcitabine by CCK8 assay; format: functional, cell-based
[5] = Cmax in ICR mouse at 20 mg/kg, po measured after 0.083 to 48 hrs by LC-MS/MS analysis; format: ADME, organism-based; design: route oral, time upper 48 hrs, time lower 0.083 hrs, dose 20 mg/kg; conditions: in vivo
[6] = system: MV4-11; assay: Antitumor activity against human MV4-11 cells xenografted in po dosed mouse assessed as inhibition of tumor growth administered for 21 days measured twice every week relative to control; format: functional, organism-based; conditions: time 21.0 day
[7] = system: MV4-11; assay: Antitumor activity against human MV4-11 cells xenografted in mouse assessed as inhibition of tumor growth at 5 mg/kg, po dosed for 21 days measured twice every week relative to control; format: functional; conditions: MV4-11, po, 504 h, time 21 day, read-out: TGI
[8] = target: hERG (KCNH2) (Homo sapiens, UniProt Q12809); assay: Inhibition of human ERG expressed in HEK293 cells at 10 uM by patch-clamp technique relative to control; format: cell-based; conditions: HEK293 cells that express hERG
[9] = AUCt in ICR mouse at 20 mg/kg, po measured after 0.083 to 48 hrs by LC-MS/MS analysis; format: ADME, organism-based; design: route oral, dose 20 mg/kg, time 0.083-48 hrs; conditions: in vivo
[10] = Half life in ICR mouse at 20 mg/kg, po measured after 0.083 to 48 hrs by LC-MS/MS analysis; format: ADME, organism-based; conditions: in vivo, time 0.083-48 hrs
[11] = target: T1, Serine/threonine-protein kinase Chk1 (Homo sapiens) (UniProt O14757); assay: Inhibition of wild type human CHK1 (M1 to G289 residue) expressed in bacterial expression system assessed as protein activity at 0.5 uM relative to control; design: scale not given: the % may be the effect or the level left
T1 sequence (whole entry): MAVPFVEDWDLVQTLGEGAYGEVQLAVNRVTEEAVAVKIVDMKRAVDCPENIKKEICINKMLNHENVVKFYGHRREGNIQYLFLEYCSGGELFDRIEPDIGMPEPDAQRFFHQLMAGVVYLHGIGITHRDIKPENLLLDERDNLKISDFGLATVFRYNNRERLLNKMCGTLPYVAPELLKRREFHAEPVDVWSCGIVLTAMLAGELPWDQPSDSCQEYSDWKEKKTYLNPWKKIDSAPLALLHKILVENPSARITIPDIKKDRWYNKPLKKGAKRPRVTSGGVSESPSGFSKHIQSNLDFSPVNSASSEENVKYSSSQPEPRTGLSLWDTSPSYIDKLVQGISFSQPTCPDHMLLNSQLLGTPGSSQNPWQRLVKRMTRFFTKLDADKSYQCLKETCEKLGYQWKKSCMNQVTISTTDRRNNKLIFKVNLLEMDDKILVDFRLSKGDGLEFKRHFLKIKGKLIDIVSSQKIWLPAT

[12] = system: Mus musculus; assay: Induction of S296 phosphorylation in tumor of mouse xenografted with human HT-29 cells at 30 mg/kg, po dosed 5 days/week for 22 days cotreated with gemcitabine by Western blot analysis; format: functional, organism-based; conditions: time 22.0 day
[13] = target: Calcium/calmodulin-dependent protein kinase type II subunit delta (Homo sapiens) (UniProt Q13557); assay: Inhibition of wild type human CAMK2D (M1 to E329 residues) expressed in bacterial expression system assessed as protein activity at 0.5 uM relative to control; design: scale not given: the % may be the effect or the level left
[14] = Selectivity ratio of Antiproliferative activity against human RPMI-8226 cells to Antiproliferative activity against human RPMI-8226 cells in presence of gemcitabine; format: functional
[15] = system: Z-138; assay: Antiproliferation activity against human Z138 cells assessed as reduction in cell viability incubated for 72 hrs by MTS assay; format: functional, cell-based; conditions: Z-138, 72 h
[16] = system: Mus musculus; assay: Downregulation of S296 phosphorylation in tumor of mouse xenografted with human HT-29 cells at 30 mg/kg, po dosed 5 days/week for 22 days by Western blot analysis; format: functional, organism-based; conditions: time 22.0 day
[17] = target: T1, Serine/threonine-protein kinase Chk1 (Homo sapiens); assay: Inhibition of CHK1 in human HT-29 cells assessed as […] residue at 1.1 uM incubated for 12 hrs by Western blot analysis; format: cell-based
[18] = system: RPMI-8226; assay: Antiproliferative activity against human RPMI-8226 cells incubated for 72 hrs by CCK8 assay; format: functional, cell-based
[19] = target: T1, Serine/threonine-protein kinase Chk1 (Homo sapiens); assay: Inhibition of CHK1 in human HT-29 cells assessed as […] residue at 0.12 to 3.3 uM incubated for 12 hrs in presence of gemcitabine by Western blot analysis; format: cell-based; conditions: dose 0.12-3.3 µM
[20] = AUC (0 to infinity) in ICR mouse at 20 mg/kg, po measured after 0.083 to 48 hrs by LC-MS/MS analysis; format: ADME, organism-based; design: route oral, time upper 48 hrs, time lower 0.083 hrs, dose 20 mg/kg; conditions: in vivo
[21] = target: Ribosomal protein S6 kinase alpha-2 (Homo sapiens) (UniProt Q15349); assay: Inhibition of wild type human RSK3 expressed in bacterial expression system assessed as protein activity at 0.5 uM relative to control; design: scale not given: the % may be the effect or the level left
[22] = Tmax in ICR mouse at 20 mg/kg, po measured after 0.083 to 48 hrs by LC-MS/MS analysis; format: ADME, organism-based; conditions: in vivo, time 0.083-48 hrs
[23] = target: Ribosomal protein S6 kinase alpha-3 (Homo sapiens) (UniProt P51812); assay: Inhibition of wild type human RSK2 expressed in mammalian expression system assessed as protein activity at 0.5 uM relative to control; design: scale not given: the % may be the effect or the level left
[24] = system: Mus musculus; assay: Induction of S345 phosphorylation in tumor of mouse xenografted with human HT-29 cells at 30 mg/kg, po dosed 5 days/week for 22 days by Western blot analysis; format: functional, organism-based; conditions: time 22.0 day
[25] = system: A549; assay: Antiproliferative activity against human A549 cells incubated for 72 hrs in presence of gemcitabine by CCK8 assay; format: functional, cell-based
[26] = target: T1, Serine/threonine-protein kinase Chk1 (Homo sapiens); assay: Inhibition of CHK1 in human MV4-11 cells assessed as reduction in autophosphorylation at S296 residue incubated for 2 hrs by Western blot analysis; format: cell-based
[27] = system: A549; assay: Antiproliferative activity against human A549 cells incubated for 72 hrs by CCK8 assay; format: functional, cell-based
[28] = target: T1, Serine/threonine-protein kinase Chk1 (Homo sapiens); assay: Inhibition of CHK1 in human MV4-11 cells assessed as increase in phosphorylation at S345 residue incubated for 2 hrs by Western blot analysis; format: cell-based
[29] = Selectivity ratio of Antiproliferative activity against human A549 cells to Antiproliferative activity against human A549 cells in presence of gemcitabine; format: functional
[30] = Selectivity ratio of Antiproliferative activity against human HT-29 cells to Antiproliferative activity against human HT-29 cells in presence of gemcitabine; format: functional
[31] = system: HT-29; assay: Antiproliferative activity against human HT-29 cells incubated for 72 hrs in presence of gemcitabine by CCK8 assay; format: functional, cell-based
[32] = target: T2, Serine/threonine-protein kinase Chk1 (Homo sapiens, UniProt O14757); assay: Inhibition of CHK1 (unknown origin) incubated for 1 hr in presence of ATP by HTRF assay
T2 sequence (O14757 whole entry): T1 sequence (whole entry)

Chain of Ribosomal protein S6 kinase alpha-2 (Homo sapiens) (Q15349 whole entry): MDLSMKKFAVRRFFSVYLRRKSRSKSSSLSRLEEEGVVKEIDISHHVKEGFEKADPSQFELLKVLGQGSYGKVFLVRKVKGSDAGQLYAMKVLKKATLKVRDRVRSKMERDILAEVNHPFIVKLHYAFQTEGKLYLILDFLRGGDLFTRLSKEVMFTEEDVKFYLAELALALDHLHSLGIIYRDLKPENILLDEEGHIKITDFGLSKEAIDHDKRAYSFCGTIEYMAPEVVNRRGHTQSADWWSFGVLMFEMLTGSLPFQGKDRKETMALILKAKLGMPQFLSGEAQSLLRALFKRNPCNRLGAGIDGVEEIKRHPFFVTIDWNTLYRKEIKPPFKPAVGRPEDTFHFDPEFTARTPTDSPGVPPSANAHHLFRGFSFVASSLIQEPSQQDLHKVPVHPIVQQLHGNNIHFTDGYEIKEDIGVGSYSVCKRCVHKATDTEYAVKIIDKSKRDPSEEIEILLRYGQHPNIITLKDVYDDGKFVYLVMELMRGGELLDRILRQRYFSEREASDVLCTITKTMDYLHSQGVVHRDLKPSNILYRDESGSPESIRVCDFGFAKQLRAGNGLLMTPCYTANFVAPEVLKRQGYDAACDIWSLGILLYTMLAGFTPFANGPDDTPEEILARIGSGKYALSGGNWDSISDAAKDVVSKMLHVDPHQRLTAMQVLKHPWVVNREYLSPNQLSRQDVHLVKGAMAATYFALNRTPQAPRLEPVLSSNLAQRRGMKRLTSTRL
Chain of Ribosomal protein S6 kinase alpha-3 (Homo sapiens) (P51812 whole entry): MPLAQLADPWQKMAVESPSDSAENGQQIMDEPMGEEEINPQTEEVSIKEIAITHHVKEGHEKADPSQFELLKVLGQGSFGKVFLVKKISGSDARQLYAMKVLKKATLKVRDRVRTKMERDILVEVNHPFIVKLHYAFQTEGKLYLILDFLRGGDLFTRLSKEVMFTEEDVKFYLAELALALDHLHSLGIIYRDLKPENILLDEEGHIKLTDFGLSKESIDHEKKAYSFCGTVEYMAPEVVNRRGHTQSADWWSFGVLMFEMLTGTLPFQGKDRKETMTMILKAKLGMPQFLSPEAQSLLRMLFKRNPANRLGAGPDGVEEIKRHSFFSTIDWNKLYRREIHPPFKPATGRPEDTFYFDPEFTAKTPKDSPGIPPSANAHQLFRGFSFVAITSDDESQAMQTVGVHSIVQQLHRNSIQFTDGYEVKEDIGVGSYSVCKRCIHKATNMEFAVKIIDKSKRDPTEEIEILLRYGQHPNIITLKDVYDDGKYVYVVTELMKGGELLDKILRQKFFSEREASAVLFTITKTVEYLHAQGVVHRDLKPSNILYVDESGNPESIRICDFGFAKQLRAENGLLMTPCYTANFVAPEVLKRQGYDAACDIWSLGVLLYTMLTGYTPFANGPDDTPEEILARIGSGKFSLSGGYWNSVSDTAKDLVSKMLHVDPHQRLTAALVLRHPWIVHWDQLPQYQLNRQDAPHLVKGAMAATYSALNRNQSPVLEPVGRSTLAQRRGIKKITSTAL
Chain of hERG (KCNH2) (Q12809 whole entry): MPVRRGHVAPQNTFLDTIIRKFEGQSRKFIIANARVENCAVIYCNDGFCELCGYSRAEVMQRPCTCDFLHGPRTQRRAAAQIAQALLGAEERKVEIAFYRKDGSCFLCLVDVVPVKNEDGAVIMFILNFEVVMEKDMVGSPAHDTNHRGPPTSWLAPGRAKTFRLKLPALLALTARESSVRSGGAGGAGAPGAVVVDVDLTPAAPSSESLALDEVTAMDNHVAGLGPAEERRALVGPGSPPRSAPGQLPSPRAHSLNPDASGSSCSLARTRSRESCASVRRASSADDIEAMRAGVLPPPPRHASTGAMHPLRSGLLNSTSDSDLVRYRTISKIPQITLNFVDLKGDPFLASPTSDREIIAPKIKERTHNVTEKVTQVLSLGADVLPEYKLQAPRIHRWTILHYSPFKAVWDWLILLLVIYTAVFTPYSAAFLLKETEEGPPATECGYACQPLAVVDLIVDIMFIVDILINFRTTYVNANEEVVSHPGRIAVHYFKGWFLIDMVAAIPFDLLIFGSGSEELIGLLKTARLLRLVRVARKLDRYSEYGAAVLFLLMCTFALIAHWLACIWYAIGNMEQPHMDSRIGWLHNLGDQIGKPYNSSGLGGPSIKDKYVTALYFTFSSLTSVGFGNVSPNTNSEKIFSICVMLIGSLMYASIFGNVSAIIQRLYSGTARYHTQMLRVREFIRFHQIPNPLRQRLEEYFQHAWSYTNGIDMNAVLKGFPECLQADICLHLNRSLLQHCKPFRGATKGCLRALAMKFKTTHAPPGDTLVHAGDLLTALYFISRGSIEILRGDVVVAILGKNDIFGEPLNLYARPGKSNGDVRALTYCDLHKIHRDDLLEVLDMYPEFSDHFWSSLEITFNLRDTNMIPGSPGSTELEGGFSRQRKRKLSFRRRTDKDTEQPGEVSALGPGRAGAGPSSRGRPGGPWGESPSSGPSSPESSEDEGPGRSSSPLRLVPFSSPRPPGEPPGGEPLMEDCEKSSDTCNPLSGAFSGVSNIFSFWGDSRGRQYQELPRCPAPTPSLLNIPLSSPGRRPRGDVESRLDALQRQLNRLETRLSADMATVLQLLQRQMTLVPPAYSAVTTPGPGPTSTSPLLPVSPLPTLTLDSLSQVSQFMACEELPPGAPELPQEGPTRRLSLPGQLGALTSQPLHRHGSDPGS
Chain of Calcium/calmodulin-dependent protein kinase type II subunit delta (Homo sapiens) (Q13557 whole entry, the tested form may be a part): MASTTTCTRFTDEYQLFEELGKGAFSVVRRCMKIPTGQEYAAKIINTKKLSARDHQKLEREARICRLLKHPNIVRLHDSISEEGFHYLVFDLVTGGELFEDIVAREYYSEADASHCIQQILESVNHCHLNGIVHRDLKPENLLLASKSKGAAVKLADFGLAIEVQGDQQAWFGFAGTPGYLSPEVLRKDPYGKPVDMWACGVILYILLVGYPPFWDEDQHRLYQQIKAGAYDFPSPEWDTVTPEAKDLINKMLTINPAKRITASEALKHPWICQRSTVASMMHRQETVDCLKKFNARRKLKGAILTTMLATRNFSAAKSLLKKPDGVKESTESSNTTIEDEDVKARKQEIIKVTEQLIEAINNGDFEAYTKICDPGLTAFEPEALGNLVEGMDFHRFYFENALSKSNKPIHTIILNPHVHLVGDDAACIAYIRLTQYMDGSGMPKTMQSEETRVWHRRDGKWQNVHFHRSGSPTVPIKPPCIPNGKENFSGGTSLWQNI

CC(C)(N)CCNc1nc(Nc2ccc(C#N)nc2)ncc1C(F)(F)F
MRT inf [1]: 14.7 h
T/C [2]: 11.99%
IC50 [3]: 140 nM
Activity [4]: Active
Cmax [5]: 1450 ng/mL
Activity [6]: Dose-Dependent Effect
inhibition in vivo at 5 mg/kg [7]: 51.6%
inhibition at 10 µM [8]: 35.5%
AUC(0-t) [9]: 17700 ng·h/mL
half-life [10]: 10.8 h
Activity [11]: 4%
Activity [12]: Active
Activity [13]: 19%
Ratio [14]: 100
IC50 [15]: 3280 nM
Activity [16]: Active
Activity [17]: Active
Activity [18]: Active
Activity [19]: Active
AUC(0-inf) [20]: 22700 ng·h/mL
Activity [21]: 14%
Tmax [22]: 4 h
Activity [23]: 13%
Activity [24]: Active
Activity [25]: Active
inhibition [26]: Dose-Dependent Effect
Activity [27]: Active
Activity [28]: Dose-Dependent Effect
Ratio [29]: 100
Ratio [30]: 100
Activity [31]: Active
IC50 [32]: 16.1 nM
